Measurements from patent publication US20240342159A1, “VALBENAZINE FOR USE IN THE ADD-ON TREATMENT OF SCHIZOPHRENIA” (Neurocrine Biosciences, Inc., priority 2021, published 2024).

Legend:
CYP2D6 = CYP2D6 (Homo sapiens, UniProt P10635); test: metabolism of NBI-98782 by CYP2D6; format: in vitro ADME
[1] = central nervous system, respiratory and cardiovascular safety pharmacology studies; format: in vivo; conditions: compared with human exposure
adults with TD = test: adverse reactions in 3 placebo-controlled studies in adults with tardive dyskinesia; format: in vivo, human; conditions: 6-week treatment
rats [2] = test: repeat-dose nonclinical toxicology study, rat; format: in vivo
[3] = metabolism of valbenazine by hydrolysis; format: in vitro ADME
[4] = clinical safety signals (cardiovascular, laboratory, vital signs, serum prolactin, suicidality); format: in vivo, human
[5] = test system: pediatric subjects with TS; test: treatment-emergent adverse events in pediatric subjects with Tourette Syndrome; format: in vivo, human; conditions: higher incidence than placebo
Description: (§1) Common treatment-emergent adverse events (TEAEs) in pediatric subjects with TS with incidence >5% in the valbenazine treatment groups and with a higher incidence than placebo include headache, somnolence, sedation, upper respiratory tract infection, insomnia, fatigue, vomiting, and suicidal ideation. In the entire valbenazine clinical development program as of 10 Apr. 2021, treatment-emergent serious adverse events (SAEs) occurring in 3 or more valbenazine-treated subjects each were schizophrenia, suicidal ideation, chronic obstructive pulmonary disease, syncope, abdominal pain, depression, mental status changes, and schizoaffective disorder.

[6] = test system: cytochrome P450 (CYP) enzyme; test: cytochrome P450 (CYP) enzyme inhibition or induction; format: in vitro ADME; conditions: at pharmacologically relevant concentrations
[7] = test system: panel of other drug transporters; test: inhibition of a panel of other drug transporters; format: in vitro ADME
rats [8] = test: embryo/fetal development study, rats; format: in vivo, rat
Method: (§2) The NOAEL for embryo/fetal development in rats and rabbits was 15 mg/kg/day and 50 mg/kg/day, respectively. […] Valbenazine was negative in genotoxicity assays (in vitro Ames and chromosomal aberration assays and an in vivo rat micronucleus test).

[9] = embryo/fetal development study, rats; format: in vivo, rat; conditions: rat, in vivo
Method: as §2

QT interval = QT interval prolongation in clinical use; format: in vivo, human
hemizygous Tg.rasH2 mice = test: carcinogenicity study, hemizygous Tg.rasH2 mice; format: in vivo, mouse
[10] = in vitro Ames genotoxicity assay; format: cell-based
Method: as §2

dogs = test: repeat-dose nonclinical toxicology study, dog; format: in vivo
rats [11] = test: carcinogenicity study, rats; format: in vivo, rat
rabbits = test: embryo/fetal development study, rabbits; format: in vivo, rabbit
Method: as §2

[12] = embryo/fetal development study, rabbits; format: in vivo, rabbit; conditions: rabbit, in vivo
Method: as §2

mice = test: repeat-dose nonclinical toxicology study, mouse; format: in vivo
rat fertility = rat fertility study; format: in vivo; conditions: 10 mg/kg/day
rat fertility study = format: in vivo; conditions: rat, in vivo
P-glycoprotein = P-glycoprotein (Homo sapiens, UniProt P08183); test: P-glycoprotein inhibition; format: in vitro ADME; conditions: only at concentrations that could be achieved in the gastrointestinal tract
[13] = in vitro chromosomal aberration assay; format: cell-based
Method: as §2

[14] = test system: valbenazine-treated subjects; test: serious adverse events and deaths in the entire valbenazine clinical development program; format: in vivo, human
Description: as §1
Ten deaths have been reported in completed and ongoing valbenazine studies conducted by NBI: 9 occurred in adult subjects with TD and 1 adult subject with HD. Eight deaths occurred in subjects taking valbenazine, 1 occurred in a subject taking placebo, and 1 remains blinded.

rat = test: in vivo rat micronucleus test
Method: as §2

Chain of P-glycoprotein (P08183 whole entry): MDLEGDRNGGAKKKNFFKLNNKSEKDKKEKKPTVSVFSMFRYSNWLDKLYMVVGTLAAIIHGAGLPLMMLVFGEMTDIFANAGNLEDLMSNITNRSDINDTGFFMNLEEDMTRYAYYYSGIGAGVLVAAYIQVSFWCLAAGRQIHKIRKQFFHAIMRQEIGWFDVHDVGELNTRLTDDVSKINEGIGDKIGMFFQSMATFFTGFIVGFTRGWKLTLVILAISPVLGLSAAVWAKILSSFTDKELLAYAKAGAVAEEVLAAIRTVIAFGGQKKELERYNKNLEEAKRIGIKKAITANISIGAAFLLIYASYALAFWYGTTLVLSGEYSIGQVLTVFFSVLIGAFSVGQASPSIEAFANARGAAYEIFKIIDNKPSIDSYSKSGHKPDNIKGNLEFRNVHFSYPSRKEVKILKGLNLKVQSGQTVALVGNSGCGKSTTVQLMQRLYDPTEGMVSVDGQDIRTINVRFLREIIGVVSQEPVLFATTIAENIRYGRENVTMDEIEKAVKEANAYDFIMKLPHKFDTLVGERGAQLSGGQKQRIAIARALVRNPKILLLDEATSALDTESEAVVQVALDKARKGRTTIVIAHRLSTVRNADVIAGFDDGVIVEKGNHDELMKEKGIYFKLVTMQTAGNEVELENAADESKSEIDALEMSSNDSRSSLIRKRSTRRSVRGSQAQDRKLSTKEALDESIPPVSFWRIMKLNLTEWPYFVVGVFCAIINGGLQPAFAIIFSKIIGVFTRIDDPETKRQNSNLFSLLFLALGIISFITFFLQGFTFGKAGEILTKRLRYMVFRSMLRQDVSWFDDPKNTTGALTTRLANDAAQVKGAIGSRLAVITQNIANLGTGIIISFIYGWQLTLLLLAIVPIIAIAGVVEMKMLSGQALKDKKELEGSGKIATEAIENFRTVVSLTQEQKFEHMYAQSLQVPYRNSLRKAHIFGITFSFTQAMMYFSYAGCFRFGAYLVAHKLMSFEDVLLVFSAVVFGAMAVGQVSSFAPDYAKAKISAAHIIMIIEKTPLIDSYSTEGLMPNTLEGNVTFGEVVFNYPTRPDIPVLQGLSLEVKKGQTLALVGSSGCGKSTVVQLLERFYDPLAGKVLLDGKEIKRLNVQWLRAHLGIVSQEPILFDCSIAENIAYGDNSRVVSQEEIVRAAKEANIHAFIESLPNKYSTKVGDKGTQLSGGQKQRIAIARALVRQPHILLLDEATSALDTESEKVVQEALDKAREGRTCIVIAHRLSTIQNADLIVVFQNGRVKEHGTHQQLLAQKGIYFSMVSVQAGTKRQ
Chain of CYP2D6 (P10635 whole entry): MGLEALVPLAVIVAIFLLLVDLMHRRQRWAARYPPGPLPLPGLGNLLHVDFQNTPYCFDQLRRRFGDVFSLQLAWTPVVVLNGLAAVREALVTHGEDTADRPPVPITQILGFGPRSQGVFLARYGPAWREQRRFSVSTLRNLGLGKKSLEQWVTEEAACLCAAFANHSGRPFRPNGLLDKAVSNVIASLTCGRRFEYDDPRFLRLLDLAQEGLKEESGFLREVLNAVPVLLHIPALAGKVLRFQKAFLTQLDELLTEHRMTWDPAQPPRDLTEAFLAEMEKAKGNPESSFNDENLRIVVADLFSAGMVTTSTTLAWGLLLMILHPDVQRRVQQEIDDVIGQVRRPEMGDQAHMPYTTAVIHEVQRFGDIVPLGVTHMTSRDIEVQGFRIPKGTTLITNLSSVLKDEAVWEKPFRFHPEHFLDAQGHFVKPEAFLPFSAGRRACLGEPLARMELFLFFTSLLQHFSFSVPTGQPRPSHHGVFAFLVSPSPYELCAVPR

## (+)-α-3-isobutyl-9,10-dimethoxy-1,3,4,6,7,11b-hexahydro-2H-pyrido[2,1-a]isoquinolin-2-ol [NBI-98782]
CYP2D6
  subsequent metabolism: metabolized in part by CYP2D6
[1]
  systemic exposures at the NOAEL in safety pharmacology studies: above those achieved at the highest proposed therapeutic dose in humans

## COc1cc2c(cc1OC)[C@H]1C[C@@H](OC(=O)[C@@H](N)C(C)C)[C@H](CC(C)C)CN1CC2 [Valbenazine, L-valine, (2R,3R,11bR)-1,3,4,6,7,11b-hexahydro-9,10-dimethoxy-3-(2-methylpropyl)-2H-benzo[a]quinolizin-2-yl ester]
Adults with TD
  incidence of anticholinergic effects (dry mouth, constipation, disturbance in attention, vision blurred, urinary retention): 5.4%
  incidence of balance disorders/fall (fall, gait disturbance, dizziness, balance disorder): 4.1%
  incidence of somnolence (somnolence, fatigue, sedation): 10.9%
Rats [2]
  dose with no adverse effects, repeat-dose toxicology: 3 mg/kg/day
[3]
  metabolic pathway: metabolized by hydrolysis to NBI-98782
[4]; human, in vivo
  cardiovascular, laboratory or vital sign related safety signals: No cardiovascular, laboratory, or vital sign related safety signals
  suicidality: does not appear to increase suicidality
[4]; mean changes with placebo considerably smaller
  serum prolactin: Increases in serum prolactin above normal laboratory ranges
[5]
  incidence of common TEAEs: headache, somnolence, sedation, upper respiratory tract infection, insomnia, fatigue, vomiting, suicidal ideation: > 5%
[6]
  CYP enzyme inhibition or induction: little or no cytochrome P450 (CYP) enzyme inhibition or induction
[7]
  inhibition of a panel of other drug transporters: not an inhibitor
Rats [8]
  teratogenicity: no evidence of teratogenicity
[9]
  NOAEL: 15 mg/kg/day
QT interval; at concentrations expected with recommended dosing
  degree of QT prolongation: not clinically significant
QT interval; subjects taking a strong CYP2D6 or CYP3A4 inhibitor, or CYP2D6 poor metabolizers
  QT prolongation with higher valbenazine concentrations: QT prolongation clinically significant
Hemizygous Tg.rasH2 mice
  tumors in carcinogenicity study: did not increase tumors
[10]
  genotoxicity, Ames assay: negative
dogs
  dose with no adverse effects, repeat-dose toxicology: 15 mg/kg/day
Rats [11]
  tumors in carcinogenicity study: did not increase tumors
rabbits
  teratogenicity: no evidence of teratogenicity
[12]
  NOAEL: 50 mg/kg/day
mice
  dose with no adverse effects, repeat-dose toxicology: 60 mg/kg/day
[1]
  systemic exposures at the NOAEL in safety pharmacology studies: above those achieved at the highest proposed therapeutic dose in humans
Rat fertility
  effect on rat fertility: modest negative effect
Rat fertility study
  NOAEL: 3 mg/kg/day
P-glycoprotein
  inhibition of P-glycoprotein: moderate inhibitor
[13]
  genotoxicity, chromosomal aberration assay: negative
[14]; all ten deaths
  relationship of deaths to study drug: not related or unlikely related
[14]; of ten deaths in completed and ongoing studies
  deaths in subjects taking valbenazine: Eight
rat
  genotoxicity, rat micronucleus test: negative
